Usually MIC stands for the lowest concentration found to suppress growth. A higher MIC goes with weaker potency.

Common to all, as to assay type: cell-based
In one assay the test system is E. coli DH5α. The assay can be described thus: Antibacterial activity: MIC and growth curve against E. coli DH5α in 96-well plate. Particulars: minimal inhibitory concentration against E. coli DH5α; 96-well plate, 5×10^5 CFU/mL, 37° C., judged after 8 h. An outline of the steps:
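Log-phase bacteria (OD600 ~0.5) resuspended in LB at 5×10^5 CFU/mL, exposed to recombinant protein at 50, 25, 12.5 μg/mL final in triplicate, 37 °C shaking at 175 rpm. OD600 read every 30 min; MIC is lowest concentration showing no growth.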

For the next assay, the system named is E. coli BL21. The assay can be described thus: MIC against Gram-negative bacteria: E. coli BL21. As to conditions: 5×10^5 CFU/mL. Put shortly: (§1)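 Bacteria grown in LB at 37° C to McFarland 0.5, resuspended and seeded at 5×10^5 CFU/mL in 96-well plates. Purified human EGF-domain proteins two-fold serially diluted, triplicate wells; cultured at 37° C, shaking 175 rpm. MIC = lowest protein concentration with no growth.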

The next assay concerns Pseudomonas aeruginosa. Briefly: MIC against Gram-negative bacteria: Pseudomonas aeruginosa. As to conditions: 5×10^5 CFU/mL. Put shortly:
as §1

A further assay relates to Klebsiella pneumonia. Briefly: MIC against Gram-negative bacteria: Klebsiella pneumonia. As to conditions: 5×10^5 CFU/mL. Put shortly: as §1
The test system of another assay is Enterobacter cloacae. The assay can be described thus: MIC against Gram-negative bacteria: Enterobacter cloacae. As to conditions: 5×10^5 CFU/mL. Put shortly: as §1
For a further assay, the system named is Aeromonas hydrophila. The assay can be described thus: MIC against Gram-negative bacteria: Aeromonas hydrophila. As to conditions: 5×10^5 CFU/mL. An outline of the steps:
as §1

The subject of a further assay is Citrobacter diversus. The assay can be described thus: MIC against Gram-negative bacteria: Citrobacter diversus. As to conditions: 5×10^5 CFU/mL. An outline of the steps:
as §1

The test system of the next assay is Moraxella catarrhalis. The assay can be described thus: MIC against Gram-negative bacteria: Moraxella catarrhalis. As to conditions: 5×10^5 CFU/mL. Put shortly:
as §1

A further assay concerns Proteus mirabilis. The assay can be described thus: MIC against Gram-negative bacteria: Proteus mirabilis. As to conditions: 5×10^5 CFU/mL. Put shortly: as §1
A further assay deals with Proteus vulgaris. The assay can be described thus: MIC against Gram-negative bacteria: Proteus vulgaris. Particulars: 5×10^5 CFU/mL. Put shortly:
as §1

The test system of the next assay is Serratia marcescens. The assay can be described thus: MIC against Gram-negative bacteria: Serratia marcescens. Particulars: 5×10^5 CFU/mL. An outline of the steps:
as §1

Where [1] appears, read: P. aeruginosa, 10 h cultivation at 37° C.
The mark [2] stands for this setting: K. pneumonia, 10 h cultivation at 37° C.
[3] abbreviates: E. cloacae, 10 h cultivation at 37° C.
The mark [4] stands for this setting: A. hydrophila, 10 h cultivation at 37° C.
[5] abbreviates: C. diversus, 10 h cultivation at 37° C.
Where [6] appears, read: M. catarrhalis, 10 h cultivation at 37° C.
[7] abbreviates: P. mirabilis, 10 h cultivation at 37° C.
The mark [8] stands for this setting: P. vulgaris, 10 h cultivation at 37° C.
[9] abbreviates: S. marcescens, 10 h cultivation at 37° C.

Turning to “PRT101 (DVDECSSGQHQCDSSTVCFNTVGSYSCRCRPGWKPRHGIPNNQKDTVCE; listed as Homo sapiens)”, in the assay on E. coli DH5α, the MIC is 25 µg/mL. Further, the “MIC (μg/mL) E. coli BL21” value with E. coli BL21 (96-well plate, 37° C., 10 h) came out at 50 µg/mL. The “MIC (μg/mL) P. aeruginosa” value against Pseudomonas aeruginosa (Pseudomonas aeruginosa, 96-well plate, 37° C., 10 h) worked out at 25 µg/mL. Further, in the assay on Klebsiella pneumonia (Klebsiella pneumonia, 96-well plate, 37° C., 10 h), the “MIC (μg/mL) K. pneumonia” value stood at 50 µg/mL. In addition, in the assay with Enterobacter cloacae (Enterobacter cloacae, 96-well plate, 37° C., 10 h), the “MIC (μg/mL) E. cloacae” value turned out to be 25 µg/mL. Moreover, in the assay on Aeromonas hydrophila (Aeromonas hydrophila, 96-well plate, 37° C., 10 h), the “MIC (μg/mL) A. hydrophila” value is 50 µg/mL. In addition, the “MIC (μg/mL) C. diversus” value in the assay on Citrobacter diversus (Citrobacter diversus, 96-well plate, 37° C., 10 h) amounted to 50 µg/mL. For the same substance, the “MIC (μg/mL) M. catarrhalis” value in the assay on Moraxella catarrhalis (Moraxella catarrhalis, 96-well plate, 37° C., 10 h) came out at 50 µg/mL. The “MIC (μg/mL) P. mirabilis” value against Proteus mirabilis (Proteus mirabilis, 96-well plate, 37° C., 10 h) was determined as 12.5 µg/mL. In addition, the “MIC (μg/mL) P. vulgaris” value in the assay on Proteus vulgaris (Proteus vulgaris, 96-well plate, 37° C., 10 h) came to 12.5 µg/mL. In addition, the “MIC (μg/mL) S. marcescens” value in the assay on Serratia marcescens (Serratia marcescens, 96-well plate, 37° C., 10 h) was 12.5 µg/mL.

Regarding “PRT706 (EVNHCSNYCQNGGTCVPSVLGRPTCSCALGFTGPNCG; listed as Homo sapiens)”, the minimal inhibitory concentration (MIC) with E. coli DH5α is 25 µg/mL. The “MIC E. coli BL21” value with E. coli BL21 (96-well plate, 37° C., 10 h) came out at 50 µg/mL. Further, the “MIC P. aeruginosa” value in the assay on Pseudomonas aeruginosa (96-well plate, 37° C., 10 h) was determined as 12.5 µg/mL. Further, in the assay with Klebsiella pneumonia (96-well plate, 37° C., 10 h), the “MIC K. pneumonia” value worked out at 12.5 µg/mL. In addition, the “MIC E. cloacae” value in the assay on Enterobacter cloacae (96-well plate, 37° C., 10 h) worked out at 25 µg/mL. For the same substance, the “MIC A. hydrophila” value against Aeromonas hydrophila (96-well plate, 37° C., 10 h) stood at 50 µg/mL. For the same substance, the “MIC C. diversus” value against Citrobacter diversus (96-well plate, 37° C., 10 h) amounted to 12.5 µg/mL. Also, in the assay on Moraxella catarrhalis (96-well plate, 37° C., 10 h), the “MIC M. catarrhalis” value amounted to 50 µg/mL. Further, the “MIC P. mirabilis” value against Proteus mirabilis (96-well plate, 37° C., 10 h) was 12.5 µg/mL. Moreover, the “MIC P. vulgaris” value against Proteus vulgaris (96-well plate, 37° C., 10 h) is 50 µg/mL. The “MIC S. marcescens” value with Serratia marcescens (96-well plate, 37° C., 10 h) came to 12.5 µg/mL.

In the assay with E. coli DH5α, “PRT203 (CSPAFCNKRGICNNKHHCHCNYLWDPPNCL; listed as Homo sapiens)” yielded an MIC of 12.5 µg/mL. The “MIC (μg/mL) E. coli BL21” value with E. coli BL21 (10 h cultivation at 37° C.) stood at 25 µg/mL. Moreover, the “MIC (μg/mL) P. aeruginosa” value with Pseudomonas aeruginosa (setting [1]) was 12.5 µg/mL. In addition, in the assay on Klebsiella pneumonia (setting [2]), the “MIC (μg/mL) K. pneumonia” value was 25 µg/mL. Also, in the assay with Enterobacter cloacae (setting [3]), the “MIC (μg/mL) E. cloacae” value stood at 12.5 µg/mL. Besides, in the assay on Aeromonas hydrophila (setting [4]), the “MIC (μg/mL) A. hydrophila” value stood at 25 µg/mL. Further, the “MIC (μg/mL) C. diversus” value with Citrobacter diversus (setting [5]) was found to be 50 µg/mL. Besides, the “MIC (μg/mL) M. catarrhalis” value in the assay on Moraxella catarrhalis (setting [6]) was 25 µg/mL. In addition, the “MIC (μg/mL) P. mirabilis” value against Proteus mirabilis (setting [7]) was found to be 50 µg/mL. In the assay on Proteus vulgaris (setting [8]), the “MIC (μg/mL) P. vulgaris” value worked out at 25 µg/mL. Besides, in the assay on Serratia marcescens (setting [9]), the “MIC (μg/mL) S. marcescens” value amounted to 50 µg/mL.

“PRT613 (CQCSDNIDPNAVGNCNRLTGECLKCIYNTAGFYCDRCKDGFFGNPLAPNPADKCKA; listed as Homo sapiens)” gave an MIC against E. coli DH5α of 50 µg/mL. Moreover, in the assay with E. coli BL21 (96-well plate, 37° C., 10 h), the “MIC E. coli BL21” value was 12.5 µg/mL. Besides, the “MIC P. aeruginosa” value in the assay with Pseudomonas aeruginosa (96-well plate, 37° C., 10 h) came out at 25 µg/mL. Further, the “MIC K. pneumonia” value against Klebsiella pneumonia (96-well plate, 37° C., 10 h) came to 50 µg/mL. Further, in the assay on Enterobacter cloacae (96-well plate, 37° C., 10 h), the “MIC E. cloacae” value worked out at 25 µg/mL. The “MIC A. hydrophila” value in the assay on Aeromonas hydrophila (96-well plate, 37° C., 10 h) worked out at 12.5 µg/mL. Also, the “MIC C. diversus” value against Citrobacter diversus (96-well plate, 37° C., 10 h) was 25 µg/mL. For the same substance, the “MIC M. catarrhalis” value against Moraxella catarrhalis (96-well plate, 37° C., 10 h) worked out at 50 µg/mL. Moreover, in the assay with Proteus mirabilis (96-well plate, 37° C., 10 h), the “MIC P. mirabilis” value was found to be 25 µg/mL. Also, in the assay on Proteus vulgaris (96-well plate, 37° C., 10 h), the “MIC P. vulgaris” value stood at 12.5 µg/mL. Further, the “MIC S. marcescens” value against Serratia marcescens (96-well plate, 37° C., 10 h) turned out to be 50 µg/mL.

In the assay with E. coli DH5α, “PRT265 (CQDGHGGCSEHANCSQVGTMVTCTCLPDYEGDGWSC; listed as Homo sapiens)” had an MIC of 25 µg/mL. In the assay with E. coli BL21 (10 h cultivation at 37° C.), the “MIC (μg/mL) E. coli BL21” value was determined as 12.5 µg/mL. For the same substance, the “MIC (μg/mL) P. aeruginosa” value with Pseudomonas aeruginosa (setting [1]) was 25 µg/mL. In addition, the “MIC (μg/mL) K. pneumonia” value with Klebsiella pneumonia (setting [2]) turned out to be 12.5 µg/mL. For the same substance, the “MIC (μg/mL) E. cloacae” value against Enterobacter cloacae (setting [3]) was determined as 25 µg/mL. Besides, the “MIC (μg/mL) A. hydrophila” value with Aeromonas hydrophila (setting [4]) worked out at 12.5 µg/mL. Moreover, in the assay with Citrobacter diversus (setting [5]), the “MIC (μg/mL) C. diversus” value stood at 25 µg/mL. Besides, the “MIC (μg/mL) M. catarrhalis” value in the assay on Moraxella catarrhalis (setting [6]) was 25 µg/mL. Further, the “MIC (μg/mL) P. mirabilis” value in the assay on Proteus mirabilis (setting [7]) was found to be 25 µg/mL. Also, the “MIC (μg/mL) P. vulgaris” value against Proteus vulgaris (setting [8]) is 50 µg/mL. In addition, the “MIC (μg/mL) S. marcescens” value with Serratia marcescens (setting [9]) turned out to be 25 µg/mL.

(Values after patent publication US9833497B2, “Human originated EGF domain proteins and use of the same” (CHENGDU SOURCEBIO LIMITED-LIABILITY COMPANY, priority 2013, dated 2017).)
